Laboratory results reported in patent publication US20250042922A1, “KRAS MODULATING COMPOUNDS” (priority 2023, published 2025).

Columns and labels:
[1] = test system: cellular pERK in Kuramochi (WT KRAS) cells; test: Cell based pERK assay, Kuramochi; settings: Kuramochi (WT KRAS), 2 hours incubation, HTRF phospho-ERK1/2; read-out: Kuramochi pERK EC50
Method: (§1) Compounds were tested in a 384-well assay format for their ability to inhibit cellular pERK in Kuramochi (WT KRAS), MIA-PaCa-2 (KRAS-G12C), ASPC-1 (KRAS G12D), and NCI-H441 (KRAS-G12V) cell-lines. Compounds were serially diluted (1:3) in DMSO. On day −1, 80 μL of cells were plated per well in the 384 well tissue-culture plates (Greiner: Cat #781080) to seed 5000 cells per wells of AsPC-1 or 7500 cells of MIA-PaCa-2, NCI-H441, and Kuramochi cell lines in RPMI (Corning: Cat #10-040-CM) with 10% fetal bovine serum (FBS) (HyClone: Cat #SH30071-03) and 1× penicillin-streptomycin-glutamate (PSG) (Corning: Cat #30-009-CI) for […] and Kuramochi cell lines and DMEM (Corning: Cat #15-018-CM) with 10% FBS and 1×PSG for MIA-PaCa-2 cell line. The plates were then incubated overnight at 37° C. and 5% CO2. On day 0, 400 nL of compound/well was added into the cell plates and mixed 5 times by pipetting using a Beckmann Biomek FX. The cell plates were then incubated for 2 hours at 37° C. and 5% CO2. HTRF Advanced Phospho-ERK1/2 (THR202/TYR204) Detection Kits (PerkinElmer: Cat #64AERPEG) were used to prepare the lysis and detection solution according to manufacturer protocol. Following the 2 hour incubation, 70 μL of medium was aspirated from the plates and 10 uL of lysis and detection solution was added to the plates using a Biotek EL406 washer and dispenser. Plates were sealed and stored overnight at room temperature. HTRF ratio (665 nm/615 nm) was read by Envision multimode reader (PerkinElmer) the next day. The TR-FRET ratios were normalized to a positive (saturating concentration of known inhibitor) and negative (DMSO) control and plotted against the log of compound concentration.

[2] = test system: cellular pERK in ASPC-1 (KRAS G12D) cells; test: Cell based pERK assay, ASPC-1; settings: Homo sapiens, ASPC1; ASPC-1 (KRAS G12D), 2 hours incubation, HTRF phospho-ERK1/2; read-out: AsPC1 pERK EC50
Method: as §1

[3] = test system: cellular pERK in NCI-H441 (KRAS-G12V) cells; test: Cell based pERK assay, NCI-H441; settings: Homo sapiens; NCI-H441 (KRAS-G12V), 2 hours incubation, HTRF phospho-ERK1/2; read-out: H441 PERK EC50
Method: as §1

[4] = test system: cellular pERK in MIA-PaCa-2 (KRAS-G12C) cells; test: Cell based pERK assay, MIA-PaCa-2; settings: Homo sapiens; MIA-PaCa-2 (KRAS-G12C), 2 hours incubation, HTRF phospho-ERK1/2; read-out: MIAPaCa2 pERK EC50
Method: as §1

Row | Structure (SMILES) | EC50 [1] | EC50 [2] | EC50 [3] | EC50 [4]
1 | Oc1cc(-c2nc3c4c(nc(OCC56CCCN5CCC6)nc4c2F)N2C[C@@]4(F)CC[C@](F)(N4)[C@H]2CCC3)c2c(Cl)c(F)ccc2c1 [Example 4-27, 5-chloro-6-fluoro-4-((6aR,7R,10S)-1,7,10-trifluoro-13-((tetrahydro-1H-pyrrolizin-7a(5H)-yl)methoxy)-5,6,6a,7,8,9,10,11-octahydro-4H-3,11a,12,14,15-pentaaza-7,10-methanocyclohepta[4,5]cycloocta[1,2,3-de]naphthalen-2-yl)naphthalen-2-ol] | 2.58 nM | 64.3 nM | 13.8 nM | 3.03 nM
2 | C#Cc1c(F)ccc2cccc(-c3nc4c5c(nc(OCC67CCCN6CCC7)nc5c3F)N3C[C@@]5(F)CC[C@](F)(N5)[C@@H]3[C@@H](C)C4)c12 [Example 4-31, (5S,5aS,6R,9S)-2-(8-ethynyl-7-fluoronaphthalen-1-yl)-1,6,9-trifluoro-5-methyl-12-((tetrahydro-1H-pyrrolizin-7a(5H)-yl)methoxy)-4,5,5a,6,7,8,9,10-octahydro-3,10a,11,13,14-pentaaza-6,9-methanonaphtho[1,8-ab]heptalene] | 1.36 nM | 38.1 nM |  | 2.19 nM
3 | C#Cc1c(F)ccc2cc(O)cc(-c3nc4c5c(nc(OCC67CCCN6CCC7)nc5c3F)N3C[C@@]5(F)CC[C@](F)(N5)[C@H]3CCC4)c12 [Example 4-5, 5-ethynyl-6-fluoro-4-((6aR,7R,10S)-1,7,10-trifluoro-13-((tetrahydro-1H-pyrrolizin-7a(5H)-yl)methoxy)-5,6,6a,7,8,9,10,11-octahydro-4H-3,11a,12,14,15-pentaaza-7,10-methanocyclohepta[4,5]cycloocta[1,2,3-de]naphthalen-2-yl)naphthalen-2-ol] | 6.47 nM | 10.1 nM |  | 0.397 nM
4 | CCc1c(F)ccc2cc(O)cc(-c3nc4c5c(nc(OCC67CCCN6CCC7)nc5c3F)N3C[C@@]5(F)CC[C@](F)(N5)[C@@H]3[C@@H](C)C4)c12 [Example 6-3, 5-ethyl-6-fluoro-4-((8S,8aS,9R,12S)-4,9,12-trifluoro-8-methyl-2-((tetrahydro-1H-pyrrolizin-7a(5H)-yl)methoxy)-7,8,8a,9,10,11,12,13-octahydro-1,3,6,13a,14-pentaaza-9,12-methanonaphtho[1,8-ab]heptalen-5-yl)naphthalen-2-ol] | 6.62 nM | 20 nM |  | 0.513 nM
5 | CCc1c(F)ccc2cc(N)cc(-c3nc4c5c(nc(OCC67CCCN6CCC7)nc5c3F)N3C[C@@]5(F)CC[C@](F)(N5)[C@@H]3[C@@H](C)C4)c12 [Example 6-4, 5-ethyl-6-fluoro-4-((8S,8aS,9R,12S)-4,9,12-trifluoro-8-methyl-2-((tetrahydro-1H-pyrrolizin-7a(5H)-yl)methoxy)-7,8,8a,9,10,11,12,13-octahydro-1,3,6,13a,14-pentaaza-9,12-methanonaphtho[1,8-ab]heptalen-5-yl)naphthalen-2-amine] | 8.24 nM | 197 nM |  | 12.8 nM
6 | C#Cc1c(F)ccc2c(F)c(N)cc(-c3nc4c5c(nc(OCC67CCCN6CCC7)nc5c3F)N3C[C@@]5(F)CC[C@](F)(N5)[C@H]3CCC4)c12 [Example 4-18, 5-ethynyl-1,6-difluoro-4-((6aR,7R,10S)-1,7,10-trifluoro-13-((tetrahydro-1H-pyrrolizin-7a(5H)-yl)methoxy)-5,6,6a,7,8,9,10,11-octahydro-4H-3,11a,12,14,15-pentaaza-7,10-methanocyclohepta[4,5]cycloocta[1,2,3-de]naphthalen-2-yl)naphthalen-2-amine] | 13.3 nM | 388 nM |  | 22.3 nM
7 | C#Cc1c(F)ccc2cc(N)cc(-c3nc4c5c(nc(OC[C@@]67CCCN6C[C@H](F)C7)nc5c3F)N3C[C@@]5(F)CC[C@](F)(N5)[C@H]3CCC4)c12 [Example 4-2, 5-ethynyl-6-fluoro-4-((6aR,7R,10S)-1,7,10-trifluoro-13-(((2R,7aS)-2-fluorotetrahydro-1H-pyrrolizin-7a(5H)-yl)methoxy)-5,6,6a,7,8,9,10,11-octahydro-4H-3,11a,12,14,15-pentaaza-7,10-methanocyclohepta[4,5]cycloocta[1,2,3-de]naphthalen-2-yl)naphthalen-2-amine] | 2.89 nM | 20 nM | 3.04 nM | 
8 | Nc1cc(-c2nc3c4c(nc(OCC56CCCN5CCC6)nc4c2F)N2C[C@@]4(F)CC[C@](F)(N4)[C@H]2CCC3)c2c(Cl)c(F)ccc2c1 [Example 5-2, 5-chloro-6-fluoro-4-((6aR,7R,10S)-1,7,10-trifluoro-13-((tetrahydro-1H-pyrrolizin-7a(5H)-yl)methoxy)-5,6,6a,7,8,9,10,11-octahydro-4H-3,11a,12,14,15-pentaaza-7,10-methanocyclohepta[4,5]cycloocta[1,2,3-de]naphthalen-2-yl)naphthalen-2-amine] | 4.4 nM | 338 nM |  | 17.7 nM
9 | N#Cc1c(F)ccc2cc(O)cc(-c3nc4c5c(nc(OCC67CCCN6CCC7)nc5c3F)N3C[C@@]5(F)CC[C@](F)(N5)[C@H]3CCC4)c12 [Example 4-9, 2-fluoro-6-hydroxy-8-((6aR,7R,10S)-1,7,10-trifluoro-13-((tetrahydro-1H-pyrrolizin-7a(5H)-yl)methoxy)-5,6,6a,7,8,9,10,11-octahydro-4H-3,11a,12,14,15-pentaaza-7,10-methanocyclohepta[4,5]cycloocta[1,2,3-de]naphthalen-2-yl)-1-naphthonitrile] | 13.2 nM | 323 nM |  | 6.08 nM
10 | Oc1cc(-c2nc3c4c(nc(OCC56CCCN5CCC6)nc4c2F)N2C[C@@]4(F)CC[C@](F)(N4)[C@H]2CCC3)c2c(F)c(F)ccc2c1 [Example 4-22, 5,6-difluoro-4-[(4S,7R,8R)-4,7,15-trifluoro-18-(1,2,3,5,6,7-hexahydropyrrolizin-8-ylmethoxy)-2,13,17,19,21-pentazapentacyclo[10.7.1.14,7.02,8.016,20]henicosa-1(19),12(20),13,15,17-pentaen-14-yl]naphthalen-2-ol] | 4.1 nM | 83.4 nM |  | 2.03 nM
11 | CCc1c(F)ccc2cc(N)cc(-c3nc4c5c(nc(OCC67CCCN6CCC7)nc5c3F)N3C[C@@]5(F)CC[C@](F)(N5)[C@H]3CCC4)c12 [Example 6-2, 5-ethyl-6-fluoro-4-((6aR,7R,10S)-1,7,10-trifluoro-13-((tetrahydro-1H-pyrrolizin-7a(5H)-yl)methoxy)-5,6,6a,7,8,9,10,11-octahydro-4H-3,11a,12,14,15-pentaaza-7,10-methanocyclohepta[4,5]cycloocta[1,2,3-de]naphthalen-2-yl)naphthalen-2-amine] | 6.48 nM | 456 nM |  | 22.6 nM
12 | C#Cc1c(F)ccc2cc(N)cc(-c3nc4c5c(nc(OC[C@@]67CCCN6C[C@H](F)C7)nc5c3F)N3C[C@@]5(F)CC[C@H](N5)[C@@H]3[C@@H](C)[C@H]4C)c12 [Example 4-37, 4-((4R,5S,5aS,6S,9S)-1,9-difluoro-12-(((2R,7aS)-2-fluorotetrahydro-1H-pyrrolizin-7a(5H)-yl)methoxy)-4,5-dimethyl-4,5,5a,6,7,8,9,10-octahydro-3,10a,11,13,14-pentaaza-6,9-methanonaphtho[1,8-ab]heptalen-2-yl)-5-ethynyl-6-fluoronaphthalen-2-amine] |  | 4.65 nM | 0.475 nM | 0.153 nM
13 | C#Cc1c(F)c(F)cc2cc(O)cc(-c3nc4c5c(nc(OCC67CCCN6CCC7)nc5c3F)N3C[C@@]5(F)CC[C@](F)(N5)[C@@H]3[C@@H](C)C4)c12 [Example 4-33, 5-ethynyl-6,7-difluoro-4-((5S,5aS,6R,9S)-1,6,9-trifluoro-5-methyl-12-((tetrahydro-1H-pyrrolizin-7a(5H)-yl)methoxy)-4,5,5a,6,7,8,9,10-octahydro-3,10a,11,13,14-pentaaza-6,9-methanonaphtho[1,8-ab]heptalen-2-yl)naphthalen-2-ol] | 8.68 nM | 12.4 nM |  | 0.286 nM
